Reference: ChEMBL document CHEMBL4665854, “Backbone Cyclization Turns a Venom Peptide into a Stable and Equipotent Ligand at Both Muscle and Neuronal Nicotinic Receptors” (J Med Chem, 2020)
Calls of active or inactive are those of the source. No cut-off for these calls is given here. Positions of bridges follow the written chain, without caps; N, C: chain ends. Residues, ends and D or L forms follow the SMILES beside them.

Key:
[1] = biological target: Neuronal acetylcholine receptor; alpha3/beta2 (Rattus norvegicus, UniProt P04757+P12390); experiment: Inhibition of rat alpha3beta2 expressed in Xenopus laevis oocytes assessed as inhibition of acetylcholine-induced channel current response at -70 mV holding potential by two-electrode voltage-clamp assay; type: cell-based, Oocyte
[2] = tested on: Phrenic nerve-diaphragm muscle; experiment: Inhibition of muscle contraction in Swiss mouse isolated phrenic nerve hemidiaphragm muscle preparation assessed as reduction of 0.1 Hz stimulation-induced isometric twitch force incubated for 20 to 25 mins; type: functional, tissue-based
[3] = biological target: CHRNA1/CHRNB1/CHRNG/CHRND (Rattus norvegicus, UniProt P18916+P25108+P25109+P25110); experiment: Inhibition of rat (alpha1)2betagammadelta expressed in Xenopus laevis oocytes assessed as inhibition of acetylcholine-induced channel current response at -70 mV holding potential by two-electrode voltage-clamp assay; type: cell-based, Oocyte
[4] = tested on: Phrenic nerve-diaphragm muscle; experiment: Reduction in fading of train-of four repetitive stimulation pattern in Swiss mouse isolated phrenic nerve hemidiaphragm muscle preparation at 20 nM; type: functional, tissue-based
[5] = Half life in human serum at 30 uM by LC-MS analysis; type: ADME, cell-free
[6] = species on record: Danio rerio; experiment: Induction of paralysis in Zebrafish assessed as inhibition of larvae movement movement at 100 uM added into the water and measured over 1 hr by larvae movement tracking analysis relative to control; type: functional
[7] = tested on: Danio rerio; experiment: Induction of paralysis in adult Zebrafish assessed as induction of rapid flaccid skeletal muscle paralysis dosed via injection measured after 10 mins; type: functional, organism-based
[8] = biological target: T1, CHRNA1/CHRNB1/CHRNG/CHRND (Rattus norvegicus) (UniProt P25109+P25108+P25110+P18916); experiment: Inhibition of rat (alpha1)2betagammadelta expressed in Xenopus laevis oocytes assessed as dissociation rate constant for inhibition of acetylcholine-induced channel current response at -70 mV holding potential by two-electrode voltage-clamp assay; type: cell-based; conditions: Oocyte
[9] = biological target: Nicotinic acetylcholine receptor alpha-1/beta-1/delta/epsilon (Rattus norvegicus, UniProt P09660+P25108+P25109+P25110); experiment: Inhibition of rat alpha1beta1epsilondelta expressed in Xenopus laevis oocytes assessed as inhibition of acetylcholine-induced channel current response at -70 mV holding potential by two-electrode voltage-clamp assay relative to control; type: cell-based, Oocyte
[10] = tested on: Phrenic nerve-diaphragm muscle; experiment: (§1) Inhibition of muscle contraction in Swiss mouse isolated phrenic nerve hemidiaphragm muscle preparation assessed as reduction of peak amplitude of 0.1 Hz stimulation-induced nerve contraction at 16 nM incubated for 30 mins relative to control; type: functional; conditions: 0.5 h
[11] = biological target: Nicotinic acetylcholine receptor alpha-1/beta-1/delta/epsilon (Homo sapiens) (UniProt P02708+P11230+Q07001+Q04844); experiment: Inhibition of adult human (alpha1)2beta1epsilondelta expressed in Xenopus laevis oocytes assessed as dissociation rate constant for inhibition of acetylcholine-induced channel current response at 1 nM at -70 mV holding potential by two-electrode voltage-clamp assay relative to control; type: cell-based; conditions: Oocyte
[12] = tested on: Phrenic nerve-diaphragm muscle; experiment: Induction of fading of train-of four repetitive stimulation pattern in Swiss mouse isolated phrenic nerve hemidiaphragm muscle preparation measured at 76% neuromuscular block; type: functional, tissue-based
[13] = tested on: Phrenic nerve-diaphragm muscle; experiment: as §1, with “twitch tension-time integrals” for “peak amplitude”, “mins followed addition of 10 uM addition of 3,4-DAP for 27 mins by” for “mins”; type: functional, tissue-based; conditions: time 57.0 min
[14] = biological target: T2, Neuronal acetylcholine receptor; alpha3/beta2 (Rattus norvegicus) (UniProt P04757+P12390); experiment: Inhibition of rat alpha3beta2 expressed in Xenopus laevis oocytes assessed as wash-out time needed for recovery of ACh-induced current responses at -70 mV holding potential by two-electrode voltage-clamp assay; type: cell-based; conditions: Oocyte
[15] = biological target: Neuronal acetylcholine receptor; alpha4/beta2 (Rattus norvegicus) (UniProt P09483+P12390); experiment: Inhibition of rat alpha4beta2 expressed in Xenopus laevis oocytes assessed as acetylcholine-induced channel current response at 10 uM at -70 mV holding potential by two-electrode voltage-clamp assay relative to control; type: cell-based; design: scale not given: the % may be the effect or the level left; conditions: Oocyte
[16] = biological target: Neuronal acetylcholine receptor subunit alpha-7 (Homo sapiens) (UniProt P36544); experiment: Inhibition of human alpha7expressed in Xenopus laevis oocytes assessed as acetylcholine-induced channel current response at 10 uM at -70 mV holding potential by two-electrode voltage-clamp assay relative to control; type: cell-based; design: scale not given: the % may be the effect or the level left; conditions: Oocyte
[17] = biological target: Neuronal acetylcholine receptor; alpha4/beta4 (Rattus norvegicus) (UniProt P09483+P12392); experiment: Inhibition of rat alpha4beta4 expressed in Xenopus laevis oocytes assessed as acetylcholine-induced channel current response at 10 uM at -70 mV holding potential by two-electrode voltage-clamp assay relative to control; type: cell-based; design: scale not given: the % may be the effect or the level left; conditions: Oocyte
[18] = biological target: T2, Neuronal acetylcholine receptor; alpha3/beta2 (Rattus norvegicus); experiment: Competitive inhibition of alpha-conotoxin MII binding to rat alpha3beta2 expressed in Xenopus laevis oocytes at 100 nM; type: cell-based; conditions: Oocyte
[19] = tested on: Phrenic nerve-diaphragm muscle; experiment: as §1, with “mins followed addition of 10 uM addition of 3,4-DAP for 27 mins by” for “mins”; type: functional, tissue-based; conditions: time 57.0 min
[20] = biological target: Neuronal acetylcholine receptor; alpha3/beta4 (Rattus norvegicus) (UniProt P04757+P12392); experiment: Inhibition of rat alpha3beta4 expressed in Xenopus laevis oocytes assessed as acetylcholine-induced channel current response at 10 uM at -70 mV holding potential by two-electrode voltage-clamp assay relative to control; type: cell-based; design: scale not given: the % may be the effect or the level left; conditions: Oocyte
[21] = biological target: Neuronal acetylcholine receptor; alpha9/alpha10 (Homo sapiens) (UniProt Q9UGM1+Q9GZZ6); experiment: Inhibition of human alpha9alpha10 expressed in Xenopus laevis oocytes assessed as acetylcholine-induced channel current response at 10 uM at -70 mV holding potential by two-electrode voltage-clamp assay relative to control; type: cell-based; design: scale not given: the % may be the effect or the level left; conditions: Oocyte
[22] = biological target: T1, CHRNA1/CHRNB1/CHRNG/CHRND (Rattus norvegicus); experiment: Inhibition of fetal rat (alpha1)2beta1gammadelta expressed in Xenopus laevis oocytes assessed as dissociation rate constant for inhibition of acetylcholine-induced channel current response at 100 nM at -70 mV holding potential by two-electrode voltage-clamp assay; type: cell-based; conditions: Oocyte
[23] = biological target: Neuronal acetylcholine receptor; alpha2/beta4 (Rattus norvegicus) (UniProt P12389+P12392); experiment: Inhibition of rat alpha2beta4 expressed in Xenopus laevis oocytes assessed as acetylcholine-induced channel current response at 10 uM at -70 mV holding potential by two-electrode voltage-clamp assay relative to control; type: cell-based; design: scale not given: the % may be the effect or the level left; conditions: Oocyte
[24] = tested on: Phrenic nerve-diaphragm muscle; experiment: Inhibition of muscle contraction in Swiss mouse isolated phrenic nerve hemidiaphragm muscle preparation assessed as reduction of 0.1 Hz stimulation-induced isometric twitch force by measuring time required to block 50% of nerve-evoked muscle contraction; type: functional
[25] = tested on: Phrenic nerve-diaphragm muscle; experiment: Inhibition of muscle contraction in Swiss mouse isolated phrenic nerve hemidiaphragm muscle preparation assessed as reduction of 0.1 Hz stimulation-induced isometric twitch force by measuring time required for 40% recovery of nerve-evoked muscle contraction; type: functional
[26] = biological target: Nicotinic acetylcholine receptor alpha6/alpha3/beta2/beta3 (Rattus norvegicus, UniProt P04757+P12390+P12391+P43143); experiment: Inhibition of rat alpha6alpha3beta2beta3 expressed in Xenopus laevis oocytes assessed as inhibition of acetylcholine-induced channel current response at -70 mV holding potential by two-electrode voltage-clamp assay relative to control; type: cell-based, Oocyte
[27] = biological target: Neuronal acetylcholine receptor; alpha2/beta2 (Rattus norvegicus) (UniProt P12389+P12390); experiment: Inhibition of rat alpha2beta2 expressed in Xenopus laevis oocytes assessed as acetylcholine-induced channel current response at 10 uM at -70 mV holding potential by two-electrode voltage-clamp assay relative to control; type: cell-based; design: scale not given: the % may be the effect or the level left; conditions: Oocyte
[28] = Mus musculus, Swiss, Phrenic nerve-diaphragm muscle

Sequence of Neuronal acetylcholine receptor; alpha3/beta2 (P04757 whole entry): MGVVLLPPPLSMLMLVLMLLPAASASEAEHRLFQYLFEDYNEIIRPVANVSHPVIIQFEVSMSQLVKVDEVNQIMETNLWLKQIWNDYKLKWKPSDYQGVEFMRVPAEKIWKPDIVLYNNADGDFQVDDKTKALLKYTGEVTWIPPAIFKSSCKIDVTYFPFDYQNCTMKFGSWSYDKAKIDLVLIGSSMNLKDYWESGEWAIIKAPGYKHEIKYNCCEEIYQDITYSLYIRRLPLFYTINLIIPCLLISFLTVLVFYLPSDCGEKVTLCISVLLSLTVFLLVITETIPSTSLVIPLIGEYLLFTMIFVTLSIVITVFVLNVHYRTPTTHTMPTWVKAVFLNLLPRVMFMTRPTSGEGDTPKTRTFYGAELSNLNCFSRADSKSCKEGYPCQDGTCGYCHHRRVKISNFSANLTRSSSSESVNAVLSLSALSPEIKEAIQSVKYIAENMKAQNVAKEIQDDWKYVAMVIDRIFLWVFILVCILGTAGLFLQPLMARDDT
Sequence of Neuronal acetylcholine receptor; alpha3/beta2 (P12390 whole entry): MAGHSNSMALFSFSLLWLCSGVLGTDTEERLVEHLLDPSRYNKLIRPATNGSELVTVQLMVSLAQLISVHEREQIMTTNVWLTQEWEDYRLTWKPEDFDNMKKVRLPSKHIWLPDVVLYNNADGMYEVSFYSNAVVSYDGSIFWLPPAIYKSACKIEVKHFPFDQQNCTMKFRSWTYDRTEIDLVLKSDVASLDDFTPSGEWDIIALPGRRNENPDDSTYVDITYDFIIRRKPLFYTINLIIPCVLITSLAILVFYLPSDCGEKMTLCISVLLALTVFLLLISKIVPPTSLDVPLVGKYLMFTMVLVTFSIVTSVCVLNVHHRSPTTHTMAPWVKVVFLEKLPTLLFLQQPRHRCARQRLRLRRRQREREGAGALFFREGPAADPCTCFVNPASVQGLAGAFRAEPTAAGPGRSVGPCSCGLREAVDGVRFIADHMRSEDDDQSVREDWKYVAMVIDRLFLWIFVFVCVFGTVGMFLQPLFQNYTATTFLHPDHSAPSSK
Sequence of CHRNA1/CHRNB1/CHRNG/CHRND (P25109 whole entry): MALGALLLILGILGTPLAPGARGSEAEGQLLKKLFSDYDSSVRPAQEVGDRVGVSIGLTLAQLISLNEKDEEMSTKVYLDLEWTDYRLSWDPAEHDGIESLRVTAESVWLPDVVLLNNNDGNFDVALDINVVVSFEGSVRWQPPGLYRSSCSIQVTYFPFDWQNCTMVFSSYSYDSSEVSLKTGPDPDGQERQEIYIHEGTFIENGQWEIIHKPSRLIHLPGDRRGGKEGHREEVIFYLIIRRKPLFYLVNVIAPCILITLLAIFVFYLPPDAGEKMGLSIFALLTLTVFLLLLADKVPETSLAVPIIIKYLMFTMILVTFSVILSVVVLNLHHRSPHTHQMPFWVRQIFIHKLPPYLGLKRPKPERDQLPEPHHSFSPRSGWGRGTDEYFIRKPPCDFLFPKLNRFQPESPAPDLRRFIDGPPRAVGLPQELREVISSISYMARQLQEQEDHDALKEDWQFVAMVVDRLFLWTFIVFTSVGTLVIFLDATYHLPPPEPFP
Sequence of CHRNA1/CHRNB1/CHRNG/CHRND (P25108 whole entry): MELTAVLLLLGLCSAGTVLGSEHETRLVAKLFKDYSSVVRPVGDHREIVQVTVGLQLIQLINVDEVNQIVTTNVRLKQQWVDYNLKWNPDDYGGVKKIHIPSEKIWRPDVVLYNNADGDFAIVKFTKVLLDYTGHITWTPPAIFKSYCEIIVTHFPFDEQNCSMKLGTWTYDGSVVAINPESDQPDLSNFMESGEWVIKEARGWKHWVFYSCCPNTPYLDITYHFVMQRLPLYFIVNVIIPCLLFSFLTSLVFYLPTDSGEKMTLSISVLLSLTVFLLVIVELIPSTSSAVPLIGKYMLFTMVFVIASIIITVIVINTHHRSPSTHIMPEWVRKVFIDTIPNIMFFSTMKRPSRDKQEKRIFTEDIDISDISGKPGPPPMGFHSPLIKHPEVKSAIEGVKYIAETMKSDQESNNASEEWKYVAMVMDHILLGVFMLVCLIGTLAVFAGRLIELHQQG
Sequence of CHRNA1/CHRNB1/CHRNG/CHRND (P25110 whole entry): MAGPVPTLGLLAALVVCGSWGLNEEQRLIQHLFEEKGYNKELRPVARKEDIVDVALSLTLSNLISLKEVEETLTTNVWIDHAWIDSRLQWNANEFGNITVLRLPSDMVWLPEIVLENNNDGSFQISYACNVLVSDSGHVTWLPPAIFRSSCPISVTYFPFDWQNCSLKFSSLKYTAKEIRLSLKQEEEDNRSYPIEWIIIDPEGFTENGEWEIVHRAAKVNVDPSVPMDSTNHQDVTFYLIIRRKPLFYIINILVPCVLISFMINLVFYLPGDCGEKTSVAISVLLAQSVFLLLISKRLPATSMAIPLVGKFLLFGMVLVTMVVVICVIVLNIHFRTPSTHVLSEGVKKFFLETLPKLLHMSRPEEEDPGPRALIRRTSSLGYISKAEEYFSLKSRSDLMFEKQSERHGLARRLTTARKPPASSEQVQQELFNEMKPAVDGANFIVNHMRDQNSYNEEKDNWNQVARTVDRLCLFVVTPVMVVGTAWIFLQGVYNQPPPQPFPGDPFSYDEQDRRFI
Sequence of CHRNA1/CHRNB1/CHRNG/CHRND (P18916 whole entry): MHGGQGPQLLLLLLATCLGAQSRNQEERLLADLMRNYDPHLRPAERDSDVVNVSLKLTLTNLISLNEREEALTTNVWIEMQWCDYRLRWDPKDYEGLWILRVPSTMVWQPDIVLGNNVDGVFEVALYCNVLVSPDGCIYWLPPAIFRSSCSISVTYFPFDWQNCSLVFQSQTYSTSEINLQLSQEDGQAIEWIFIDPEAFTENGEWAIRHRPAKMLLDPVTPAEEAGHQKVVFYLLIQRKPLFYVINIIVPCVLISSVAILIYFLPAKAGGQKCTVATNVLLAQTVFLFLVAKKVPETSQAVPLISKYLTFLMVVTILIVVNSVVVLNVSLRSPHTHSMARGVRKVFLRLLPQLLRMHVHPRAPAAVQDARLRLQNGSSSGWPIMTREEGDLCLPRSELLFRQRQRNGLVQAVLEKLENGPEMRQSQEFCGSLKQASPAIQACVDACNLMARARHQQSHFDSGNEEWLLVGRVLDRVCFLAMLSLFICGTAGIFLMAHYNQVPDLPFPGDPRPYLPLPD
Sequence of Neuronal acetylcholine receptor subunit alpha-7 (Homo sapiens) (P36544 whole entry): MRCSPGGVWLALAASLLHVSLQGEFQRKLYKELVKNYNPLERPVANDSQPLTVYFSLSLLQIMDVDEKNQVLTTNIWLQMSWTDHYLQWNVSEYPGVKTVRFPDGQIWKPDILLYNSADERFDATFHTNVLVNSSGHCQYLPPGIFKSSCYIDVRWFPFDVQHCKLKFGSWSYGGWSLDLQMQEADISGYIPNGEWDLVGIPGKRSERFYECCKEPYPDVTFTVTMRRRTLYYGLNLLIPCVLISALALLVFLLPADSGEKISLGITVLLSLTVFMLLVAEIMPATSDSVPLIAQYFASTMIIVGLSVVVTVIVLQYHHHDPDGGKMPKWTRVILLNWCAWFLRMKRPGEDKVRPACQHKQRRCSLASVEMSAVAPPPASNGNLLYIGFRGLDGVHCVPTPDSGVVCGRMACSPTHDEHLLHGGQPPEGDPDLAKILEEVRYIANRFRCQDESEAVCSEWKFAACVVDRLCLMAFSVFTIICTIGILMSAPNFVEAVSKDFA
Sequence of Nicotinic acetylcholine receptor alpha6/alpha3/beta2/beta3 (P04757 whole entry): as the sequence (P04757 whole entry) above
Sequence of Nicotinic acetylcholine receptor alpha6/alpha3/beta2/beta3 (P12390 whole entry): as the sequence (P12390 whole entry) above
Sequence of Nicotinic acetylcholine receptor alpha6/alpha3/beta2/beta3 (P12391 whole entry): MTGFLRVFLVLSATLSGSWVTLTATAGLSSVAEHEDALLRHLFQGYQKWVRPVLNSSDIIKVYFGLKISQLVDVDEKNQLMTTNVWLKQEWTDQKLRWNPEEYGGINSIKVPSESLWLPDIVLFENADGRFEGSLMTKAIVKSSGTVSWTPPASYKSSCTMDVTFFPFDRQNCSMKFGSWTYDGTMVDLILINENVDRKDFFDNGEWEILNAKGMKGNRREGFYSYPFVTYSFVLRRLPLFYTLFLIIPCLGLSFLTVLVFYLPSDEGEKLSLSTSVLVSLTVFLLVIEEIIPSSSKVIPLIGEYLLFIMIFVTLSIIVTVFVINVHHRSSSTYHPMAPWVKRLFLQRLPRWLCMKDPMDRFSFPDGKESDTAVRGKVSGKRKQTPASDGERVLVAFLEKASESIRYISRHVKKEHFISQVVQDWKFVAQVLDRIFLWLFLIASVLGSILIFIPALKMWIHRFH
Sequence of Nicotinic acetylcholine receptor alpha6/alpha3/beta2/beta3 (P43143 whole entry): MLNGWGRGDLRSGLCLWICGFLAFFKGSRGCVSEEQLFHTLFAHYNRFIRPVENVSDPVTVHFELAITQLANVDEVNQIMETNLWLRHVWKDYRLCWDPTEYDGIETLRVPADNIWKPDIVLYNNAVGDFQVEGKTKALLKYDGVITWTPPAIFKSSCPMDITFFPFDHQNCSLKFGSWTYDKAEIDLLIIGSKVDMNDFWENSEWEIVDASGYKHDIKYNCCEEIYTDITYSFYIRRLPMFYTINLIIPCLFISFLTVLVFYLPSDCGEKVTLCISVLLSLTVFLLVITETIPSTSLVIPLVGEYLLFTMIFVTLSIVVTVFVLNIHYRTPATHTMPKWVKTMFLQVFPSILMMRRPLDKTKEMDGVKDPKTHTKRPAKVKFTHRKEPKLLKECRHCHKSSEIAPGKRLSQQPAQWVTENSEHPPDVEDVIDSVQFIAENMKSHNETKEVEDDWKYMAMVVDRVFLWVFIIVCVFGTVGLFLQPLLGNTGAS

SMILES | IC50 [1] | IC50 [2, 28] | IC50 [3] | Activity [4] | half-life at 30 µM [5] | inhibition in vivo at 100 µM [6] | Activity [7] | IC50 ([7]; Danio rerio, 10 min) | K [8] | further results
C[C@@H]1NC(=O)CNC(=O)[C@@H]2CSSC[C@@H]3NC(=O)[C@H](CSSC[C@H](NC(=O)[C@H](C)NC(=O)[C@@H]4CCCN4C(=O)[C@H](Cc4c[nH]cn4)NC3=O)C(=O)NCC(=O)N[C@@H](CCCCN)C(=O)N[C@@H](Cc3c[nH]cn3)C(=O)N[C@@H](Cc3ccccc3)C(=O)N[C@@H](CO)C(=O)N2)NC(=O)[C@H](CCCNC(=N)N)NC(=O)CNC(=O)[C@H](CC(N)=O)NC(=O)CNC(=O)[C@H](C)NC1=O (cyclo(AAGNGRCCHPACGKHFSCG); disulfide 7-12, 8-18) | 21.3 nM | 16.5 nM | 8.64 nM | inactive | > 8 h | 25.2% | Dose-dependent effect | 76200 nM | 0.066 min⁻¹ | 
C[C@@H]1NC(=O)[C@@H]2CCCN2C(=O)[C@H](Cc2c[nH]cn2)NC(=O)[C@@H]2CSSC[C@@H](C(N)=O)NC(=O)[C@H](CO)NC(=O)[C@H](Cc3ccccc3)NC(=O)[C@H](Cc3c[nH]cn3)NC(=O)[C@H](CCCCN)NC(=O)CNC(=O)[C@H](CSSC[C@H](NC(=O)[C@H](CCCNC(=N)N)NC(=O)CNC(=O)[C@@H](N)CC(N)=O)C(=O)N2)NC1=O (H-NGRCCHPACGKHFSC-NH2; disulfide 4-9, 5-15) |  |  |  | inactive | 1.33 h |  | Dose-dependent effect |  |  | IC50 [2]: 8.98 nM; IC50 [7]: 6900 nM
C[C@@H]1NC(=O)[C@H](C)NC(=O)[C@@H]2CSSC[C@@H]3NC(=O)[C@H](CSSC[C@H](NC(=O)[C@H](C)NC(=O)[C@@H]4CCCN4C(=O)[C@H](Cc4c[nH]cn4)NC3=O)C(=O)NCC(=O)N[C@@H](CCCCN)C(=O)N[C@@H](Cc3c[nH]cn3)C(=O)N[C@@H](Cc3ccccc3)C(=O)N[C@@H](CO)C(=O)N2)NC(=O)[C@H](CCCNC(=N)N)NC(=O)CNC(=O)[C@H](CC(N)=O)NC(=O)CNC1=O (cyclo(AAGNGRCCHPACGKHFSC); disulfide 7-12, 8-18) | 1.3 nM | 8.7 nM | 3.57 nM | inactive | 5.33 h | 20.5% | Dose-dependent effect | 57900 nM | 0.03 min⁻¹ | IC50 [9]: 0.184 nM; inhibition at 0.016 µM [10]: 85%; K [11]: 0.013 min⁻¹; Activity [12]: inactive; inhibition [13]: inactive; TIME [14]: 0.5 h; Activity [15]: > 80%; Activity [16]: 65%; Activity [17]: > 80%; inhibition [18]: Active; inhibition [19]: inactive; Activity [20]: > 80%; Activity [21]: > 80%; K [22]: 0.03 min⁻¹; Activity [23]: > 80%; Time [24]: 19 min; Time [25]: 32.6 min; IC50 [26]: 8.64 nM; Activity [27]: > 80%
C[C@@H]1NC(=O)[C@@H]2CSSC[C@@H]3NC(=O)[C@H](CSSC[C@H](NC(=O)[C@H](C)NC(=O)[C@@H]4CCCN4C(=O)[C@H](Cc4c[nH]cn4)NC3=O)C(=O)NCC(=O)N[C@@H](CCCCN)C(=O)N[C@@H](Cc3c[nH]cn3)C(=O)N[C@@H](Cc3ccccc3)C(=O)N[C@@H](CO)C(=O)N2)NC(=O)[C@H](CCCNC(=N)N)NC(=O)CNC(=O)[C@H](CC(N)=O)NC(=O)CNC1=O (cyclo(ACGKHFSCAGNGRCCHP); disulfide 2-14, 8-15) | 10.3 nM | 13.5 nM | 7.54 nM | inactive | 7.33 h | 99.8% | Dose-dependent effect | 12100 nM | 0.126 min⁻¹ | 
